Experimental data as given in ChEMBL document CHEMBL3407465, “Interaction of human organic anion transporter polypeptides 1B1 and 1B3 with antineoplastic compounds” (Eur J Med Chem, 2015).

Assays:
[1] = target: T1, Solute carrier organic anion transporter family member 1B3 (Homo sapiens, UniProt Q9NPD5); assay: Stimulation of human OATP1B3-mediated [3H]CCK-8 at 100 uM after 5 mins relative to control; type: ADME
T1 sequence (Q9NPD5 whole entry): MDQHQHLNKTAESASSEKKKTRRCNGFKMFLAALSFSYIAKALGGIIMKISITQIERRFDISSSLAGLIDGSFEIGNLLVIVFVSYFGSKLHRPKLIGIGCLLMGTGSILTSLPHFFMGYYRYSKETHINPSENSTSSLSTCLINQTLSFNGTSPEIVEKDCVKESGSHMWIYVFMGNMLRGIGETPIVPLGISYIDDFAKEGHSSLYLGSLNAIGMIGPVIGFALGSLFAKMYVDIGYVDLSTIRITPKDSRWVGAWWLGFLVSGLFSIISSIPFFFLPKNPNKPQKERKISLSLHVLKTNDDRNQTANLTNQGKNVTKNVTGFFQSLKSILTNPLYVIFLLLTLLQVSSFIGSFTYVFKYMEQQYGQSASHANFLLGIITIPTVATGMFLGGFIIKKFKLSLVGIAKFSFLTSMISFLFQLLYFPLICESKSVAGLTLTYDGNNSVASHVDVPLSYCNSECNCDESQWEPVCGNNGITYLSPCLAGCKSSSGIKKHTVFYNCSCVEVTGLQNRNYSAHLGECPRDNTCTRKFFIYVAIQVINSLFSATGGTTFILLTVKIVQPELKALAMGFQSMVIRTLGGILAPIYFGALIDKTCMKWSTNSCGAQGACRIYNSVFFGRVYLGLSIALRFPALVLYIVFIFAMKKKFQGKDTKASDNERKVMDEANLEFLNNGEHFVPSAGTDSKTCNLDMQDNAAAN

[2] = target: T2, Solute carrier organic anion transporter family member 1B1 (Homo sapiens, UniProt Q9Y6L6); assay: Stimulation of human OATP1B1-mediated [3H]estrone 3-sulfate at 100 uM after 5 mins relative to control; type: ADME
T2 sequence (Q9Y6L6 whole entry): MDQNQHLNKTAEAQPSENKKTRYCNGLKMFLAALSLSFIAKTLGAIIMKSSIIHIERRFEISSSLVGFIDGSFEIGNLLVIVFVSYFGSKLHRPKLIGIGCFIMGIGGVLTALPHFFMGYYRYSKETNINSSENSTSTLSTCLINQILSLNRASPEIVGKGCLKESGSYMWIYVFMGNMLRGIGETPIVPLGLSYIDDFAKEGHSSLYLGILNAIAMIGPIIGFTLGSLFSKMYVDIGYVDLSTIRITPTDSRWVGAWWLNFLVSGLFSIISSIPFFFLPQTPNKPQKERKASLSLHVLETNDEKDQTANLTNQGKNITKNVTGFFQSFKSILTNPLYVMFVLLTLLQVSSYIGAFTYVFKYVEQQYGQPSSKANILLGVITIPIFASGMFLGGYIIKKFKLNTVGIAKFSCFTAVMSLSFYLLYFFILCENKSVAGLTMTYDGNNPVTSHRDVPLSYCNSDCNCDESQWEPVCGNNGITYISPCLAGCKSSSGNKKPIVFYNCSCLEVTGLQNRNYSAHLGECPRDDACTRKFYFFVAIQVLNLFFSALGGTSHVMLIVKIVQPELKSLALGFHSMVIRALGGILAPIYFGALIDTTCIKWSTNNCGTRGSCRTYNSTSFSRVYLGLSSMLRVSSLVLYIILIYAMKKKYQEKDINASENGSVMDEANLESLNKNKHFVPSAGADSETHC

[3] = target: T1, Solute carrier organic anion transporter family member 1B3; assay: Inhibition of human OATP1B3-mediated [3H]CCK-8 at 100 uM after 5 mins relative to control; type: ADME
[4] = target: T1, Solute carrier organic anion transporter family member 1B3; assay: Inhibition of human OATP1B3-mediated [3H]CCK-8 after 5 mins by Dixon plot method; type: ADME
[5] = target: T2, Solute carrier organic anion transporter family member 1B1; assay: Inhibition of human OATP1B1-mediated [3H]estrone 3-sulfate at 100 uM after 5 mins relative to control; type: ADME
[6] = target: T2, Solute carrier organic anion transporter family member 1B1; assay: Inhibition of human OATP1B1-mediated [3H]estrone 3-sulfate at after 5 mins by Dixon plot method; type: ADME
OATP1B3 = target: T3, OATP1B3 (Homo sapiens, UniProt Q9NPD5); assay: Inhibition of OATP1B3 (unknown origin)-mediated sodium fluorescein expressed in CHO cells at 10 uM; type: ADME, cell-based; conditions: CHO cells expressing OATP1B3, probe sodium fluorescein
T3 sequence (Q9NPD5 whole entry): T1 sequence (Q9NPD5 whole entry)

Work on `Nc1nc(F)nc2c1ncn2[C@@H]1O[C@H](CO)[C@@H](O)[C@@H]1O` [FLUDARABINE] yielded an Activity [1] of 12%.
Compound `Nc1nc(Cl)nc2c1ncn2[C@H]1C[C@H](O)[C@@H](CO)O1` [CLADRIBINE] has an Activity [1] of 10% and an Activity [2] of 15.9%.
Work on `CN(Cc1cnc2nc(N)nc(N)c2n1)c1ccc(C(=O)N[C@@H](CCC(=O)O)C(=O)O)cc1` [METHOTREXATE] yielded an Activity [1] of 12%.
In the case of `O=P1(N(CCCl)CCCl)NCCCO1` (centres undefined) [CYCLOPHOSPHAMIDE ANHYDROUS], the Activity [1] is reported as 8.7% and the Activity [2] is reported as 5.6%.
With `S=P(N1CC1)(N1CC1)N1CC1` [THIOTEPA] the Activity [2] was 11.9%.
With `CC[C@]1(O)C[C@H]2CN(CCc3c([nH]c4ccccc34)[C@@](C(=O)OC)(c3cc4c(cc3OC)N(C=O)[C@H]3[C@@](O)(C(=O)OC)[C@H](OC(C)=O)[C@]5(CC)C=CCN6CC[C@]43[C@@H]65)C2)C1` [VINCRISTINE] the “inhibition (INH)” value [3] was 65.1%, the IC50 [4] was 36.8 µM and the Ki [4] was 17.6 µM. The “inhibition (INH)” value [5] was 28.1%.
With `C[C@]12C=CC(=O)C=C1CC[C@@H]1[C@@H]2C(=O)C[C@@]2(C)[C@H]1CC[C@]2(O)C(=O)CO` [PREDNISONE] the “inhibition (INH)” value [3] was 12.5% and the “inhibition (INH)” value [5] was 9.8%.
For `O=C1c2c(O)ccc(O)c2C(=O)c2c(NCCNCCO)ccc(NCCNCCO)c21` [MITOXANTRONE], the “inhibition (INH)” value [3] was 84.4%, the IC50 [4] was 3.39 µM and the Ki [4] was 3.1 µM. For the same compound, the “inhibition (INH)” value [5] was 18.9%.
For `CCc1c2c(nc3ccc(OC(=O)N4CCC(N5CCCCC5)CC4)cc13)-c1cc3c(c(=O)n1C2)COC(=O)[C@]3(O)CC` [IRINOTECAN], the Activity [2] was 93.3% and the “inhibition (INH)” value [3] was 34.3%.
`Nc1ccn([C@@H]2O[C@H](CO)[C@@H](O)[C@@H]2O)c(=O)n1` [CYTARABINE] gave an Activity [1] of 17.7%.
`COc1cccc2c1C(=O)c1c(O)c3c(c(O)c1C2=O)C[C@@](O)(C(=O)CO)C[C@@H]3O[C@H]1C[C@H](N)[C@H](O)[C@H](C)O1` [DOXORUBICIN] was tested, and the “inhibition (INH)” value [3] was 53.6% and the “inhibition (INH)” value [5] was 12%.
With `O=C(O)CCCc1ccc(N(CCCl)CCCl)cc1` [CHLORAMBUCIL] the Activity [2] was 18.8%, the “inhibition (INH)” value [3] was 66% and the IC50 [4] was 80.7 µM. For the same compound, the Ki [4] was 37.4 µM.
For `Cn1c(CCCC(=O)O)nc2cc(N(CCCl)CCCl)ccc21` [BENDAMUSTINE], the “inhibition (INH)” value [3] was 48.8%.
Work on `Nc1ccn([C@@H]2O[C@H](CO)[C@@H](O)C2(F)F)c(=O)n1` [GEMCITABINE] yielded an Activity [1] of 11.1%.
For `CC[C@]1(O)C[C@@H]2CN(CCc3c([nH]c4ccccc34)[C@@](C(=O)OC)(c3cc4c(cc3OC)N(C)[C@H]3[C@@](O)(C(=O)OC)[C@H](OC(C)=O)[C@]5(CC)C=CCN6CC[C@]43[C@@H]65)C2)C1` [VINBLASTINE], the IC50 [6] was 46.8 µM, the Ki [6] was 10.2 µM and the “inhibition (INH)” value [3] was 81.5%. The IC50 [4] was 43.5 µM, the Ki [4] was 18.6 µM and the “inhibition (INH)” value [5] was 64.1%.
With `CC(=O)O[C@H]1C(=O)[C@@]2(C)[C@H]([C@H](OC(=O)c3ccccc3)[C@]3(O)C[C@H](OC(=O)[C@H](O)[C@@H](NC(=O)c4ccccc4)c4ccccc4)C(C)=C1C3(C)C)[C@]1(OC(C)=O)CO[C@@H]1C[C@@H]2O` [PACLITAXEL] the inhibition at 10 µM (OATP1B3) was 52.9%, the “inhibition (INH)” value [3] was 94.4% and the IC50 [4] was 0.26 µM. The Ki [4] was 1.8 µM.
`O=P1(NCCCl)OCCCN1CCCl` (centres undefined) [IFOSFAMIDE] was tested, and the Activity [2] was 7.4%.
